Results taken from BigSolDB 2.1.

Compound: CC1(C)O[C@H]2CC(=O)OC[C@]23[C@H]2CC[C@@]4(C)[C@H](c5ccoc5)OC(=O)[C@H]5O[C@]54[C@]2(C)C(=O)C[C@@H]13
- solubility (mole fraction) (in acetone, 283.2 K): 0.00409
- solubility (mole fraction) (in acetone, 288.2 K): 0.00454
- solubility (mole fraction) (in acetone, 293.2 K): 0.00465
- solubility (mole fraction) (in acetone, 298.2 K): 0.00471
- solubility (mole fraction) (in acetone, 303.2 K): 0.00474
- solubility (mole fraction) (in acetone, 308.2 K): 0.00497
- solubility (mole fraction) (in acetone, 313.2 K): 0.00516
- solubility (mole fraction) (in acetone, 318.2 K): 0.0055
- solubility (mole fraction) (in methanol, 283.2 K): 7.08e-05
- solubility (mole fraction) (in methanol, 288.2 K): 7.81e-05
- solubility (mole fraction) (in methanol, 293.2 K): 9.2e-05
- solubility (mole fraction) (in methanol, 298.2 K): 0.000101
- solubility (mole fraction) (in methanol, 303.2 K): 0.00012
- solubility (mole fraction) (in methanol, 308.2 K): 0.000137
- solubility (mole fraction) (in methanol, 313.2 K): 0.000162
- solubility (mole fraction) (in methanol, 318.2 K): 0.000192
- solubility (mole fraction) (in water, 283.2 K): 1.17e-07
- solubility (mole fraction) (in water, 288.2 K): 2.37e-07
- solubility (mole fraction) (in water, 293.2 K): 4.77e-07
- solubility (mole fraction) (in water, 298.2 K): 5.97e-07
- solubility (mole fraction) (in water, 303.2 K): 8.3e-07
- solubility (mole fraction) (in water, 308.2 K): 1.04e-06
- solubility (mole fraction) (in water, 313.2 K): 1.17e-06
- solubility (mole fraction) (in water, 318.2 K): 1.49e-06
